What was measured:
Type in all cases: functional
TK-10 = experiment: Growth inhibition of human TK10 cells by sulforhodamine B assay
[1] = Growth inhibition of human NCI-ADR-RES cells by sulforhodamine B assay
OVCAR-5 = experiment: Growth inhibition of human OVCAR5 cells by sulforhodamine B assay
MDA-MB-435 = experiment: Growth inhibition of human MDA-MB-435 cells by sulforhodamine B assay
SF-295 = experiment: Growth inhibition of human SF295 cells by sulforhodamine B assay
MOLT-4 [2] = experiment: Growth inhibition of human MOLT4 cells assessed as cell growth at 10^-4 M by sulforhodamine B assay; settings: read-out: Activity
[3] = Growth inhibition of human Hs 578T cells assessed as cell growth at 10^-6 M by sulforhodamine B assay; settings: read-out: Activity
NCI-H522 = experiment: Growth inhibition of human NCI-H522 cells assessed as cell growth at 10^-6 M by sulforhodamine B assay; settings: read-out: Activity
MOLT-4 [4] = experiment: Growth inhibition of human MOLT4 cells assessed as cell growth at 10^-6 M by sulforhodamine B assay; settings: read-out: Activity
UO-31 [5] = experiment: Growth inhibition of human UO31 cells assessed as cell growth at 10^-7 M by sulforhodamine B assay; settings: read-out: Activity
HCT-15 = experiment: Growth inhibition of human HCT15 cells assessed as cell growth at 10^-7 M by sulforhodamine B assay; settings: read-out: Activity
NCI-H23 = experiment: Growth inhibition of human NCI-H23 cells assessed as cell growth at 10^-7 M by sulforhodamine B assay; settings: read-out: Activity
DU-145 = experiment: Growth inhibition of human DU145 cells assessed as cell growth at 10^-8 M by sulforhodamine B assay; settings: read-out: Activity
UO-31 [6] = experiment: Growth inhibition of human UO31 cells assessed as cell growth at 10^-8 M by sulforhodamine B assay; settings: read-out: Activity
OVCAR-8 = experiment: Growth inhibition of human OVCAR8 cells assessed as cell growth at 10^-8 M by sulforhodamine B assay; settings: read-out: Activity
[7] = read-out: pLC50 (the source's name) (converted)
[8] = read-out: LC50 (the source's name)

Question: Which results are given for CC(C)=CC(=O)O[C@@H]1CC(C)(C)C[C@H]2C3=CC[C@@H]4[C@@]5(C)CC[C@H](O)C(C)(C)[C@@H]5CC[C@@]4(C)[C@]3(C)CC[C@@]12C(=O)O [Reduced Lantadene B]?
Answer: TGI (TK-10; read-out: TGI): 27.7 µM; GI50 (TK-10; read-out: pGI50 (converted)): 10.7 µM; CC50 (TK-10; [7]): 70.8 µM; TGI (TK-10; read-out: pTGI (converted)): 27.5 µM; GI50 ([1]; read-out: GI50): 5.83 µM; CC50 [1, 8]: > 100 µM; TGI ([1]; read-out: TGI): 35.9 µM; GI50 ([1]; read-out: pGI50 (converted)): 5.89 µM; CC50 [1, 7]: > 100 µM; TGI ([1]; read-out: pTGI (converted)): 36.3 µM; GI50 (OVCAR-5; read-out: GI50): 15.9 µM; CC50 (OVCAR-5; [8]): 98.9 µM; TGI (OVCAR-5; read-out: TGI): 39.7 µM; GI50 (OVCAR-5; read-out: pGI50 (converted)): 15.8 µM; CC50 (OVCAR-5; [7]): 100 µM; TGI (OVCAR-5; read-out: pTGI (converted)): 39.8 µM; GI50 (MDA-MB-435; read-out: GI50): 11.9 µM; CC50 (MDA-MB-435; [8]): > 100 µM; TGI (MDA-MB-435; read-out: TGI): 48.4 µM; GI50 (MDA-MB-435; read-out: pGI50 (converted)): 12 µM; CC50 (MDA-MB-435; [7]): > 100 µM; TGI (MDA-MB-435; read-out: pTGI (converted)): 47.9 µM; GI50 (SF-295; read-out: GI50): 1.45 µM; CC50 (SF-295; [8]): 52.8 µM; TGI (SF-295; read-out: TGI): 11.1 µM; GI50 (SF-295; read-out: pGI50 (converted)): 1.45 µM; CC50 (SF-295; [7]): 52.5 µM; TGI (SF-295; read-out: pTGI (converted)): 11.2 µM; growth at 100 µM (MOLT-4 [2]): -43%; growth at 1 µM [3]: 92%; growth at 1 µM (NCI-H522): 78%; growth at 1 µM (MOLT-4 [4]): 78%; growth at 0.1 µM (UO-31 [5]): 95%; growth at 0.1 µM (HCT-15): 87%; growth at 0.1 µM (NCI-H23): 92%; growth at 0.01 µM (DU-145): 101%; growth at 0.01 µM (UO-31 [6]): 89%; growth at 0.01 µM (OVCAR-8): 101%
